Reference: patent publication US20250034170A1, “SMALL MOLECULE MODULATORS OF GLUCOCEREBROSIDASE ACTIVITY AND USES THEREOF” (Vanqua Bio, Inc., priority 2021, published 2025)

These compounds were tested against T1, GCase (Homo sapiens, UniProt P04062) (assay: activation of GCase in a live cell PFB assay in HELA cells). Settings: EC50 given as range classes.
T1 construct: endogenous in cells; host or cells: HeLa cells
T1 sequence (P04062 40-536): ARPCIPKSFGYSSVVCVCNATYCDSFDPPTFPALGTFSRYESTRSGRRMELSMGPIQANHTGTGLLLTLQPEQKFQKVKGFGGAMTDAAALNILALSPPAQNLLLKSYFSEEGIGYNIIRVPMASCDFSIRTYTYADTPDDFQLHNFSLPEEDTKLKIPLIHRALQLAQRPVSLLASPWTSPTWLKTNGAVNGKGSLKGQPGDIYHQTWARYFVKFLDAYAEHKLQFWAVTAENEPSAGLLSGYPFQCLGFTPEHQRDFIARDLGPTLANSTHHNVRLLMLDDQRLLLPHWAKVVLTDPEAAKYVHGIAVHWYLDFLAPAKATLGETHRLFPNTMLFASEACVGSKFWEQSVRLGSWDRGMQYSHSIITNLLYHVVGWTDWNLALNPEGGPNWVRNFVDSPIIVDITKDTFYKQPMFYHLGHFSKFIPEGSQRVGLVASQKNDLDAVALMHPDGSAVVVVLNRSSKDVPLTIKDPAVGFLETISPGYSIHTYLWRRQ
Type: cell-based
Protocol: Exemplary compounds were evaluated for activation of GCase in a live cell PFB assay in HELA cells (essentially as described in Ysselstein et al., “LRRK2 kinase activity regulates lysosomal glucocerebrosidase in neurons derived from Parkinson's disease patients” Nature Communications (2019) 10:5570). […] EC50 ranges: A: <10 μM; B: >10-50 μM; C: >50-100 μM; D: >100 μM.
With `O=C1N(c2ccc(C(F)(F)F)nc2)CCC12CC1CCC(C2)N1c1cnc2cnn(CC(F)F)c2n1` (stereo not drawn) [Cmpd 797] the EC50 was less than 10 µM.
With `Cc1nn(CC(F)F)c2nc(N3CCC4(CCN(c5ccc(C(F)(F)F)nc5)C4)CC3)ncc12` [Cmpd 830] the EC50 was less than 10 µM.
`Cc1nc2cnn(CC(F)F)c2nc1N1CCC2(CCN(c3cc(C(F)(F)F)ccn3)C2)CC1` [Compound 179, 8-[1-(2,2-difluoroethyl)-5-methyl-1H-pyrazolo[3,4-b]pyrazin-6-yl]-2-[4-(trifluoromethyl)pyridin-2-yl]-2,8-diazaspiro[4.5]decane] showed an EC50 of 10 to 50 µM.
Compound `Cc1nn(CC(F)F)c2nc(N3CCC4(CCN(c5cnc(C(F)(F)F)nc5)C4)CC3)cnc12` [Cmpd 829] has an EC50 of less than 10 µM.
In the case of `O=C1N(c2ccc(C(F)(F)F)nc2)C(=O)C2(CCN(c3cnc4cnn(CC(F)F)c4n3)CC2)N1Cc1cc(F)cc(F)c1` [Cmpd 818], the EC50 is reported as less than 10 µM.
For `FC(F)(F)c1ccc(N2CCC3(CCN(c4cncc(-c5nncs5)n4)CC3)C2)cn1` [Cmpd 233], the EC50 was less than 10 µM.
`O=C1N(c2ccc(C(F)(F)F)nc2)CCC12CCN(c1cnc3cnn(CC(F)F)c3n1)C2` (stereo not drawn) [Cmpd 201] showed an EC50 of 10 to 50 µM.
In the case of `Cc1nc(N2CCC3(CCN(c4cc5c(cn4)c(C)nn5CC(F)F)CC3)C2)cc(C(F)(F)F)n1` [Cmpd 630], the EC50 is reported as 10 to 50 µM.
`CCn1c(=O)n(CC(F)F)c2nc(N3CCC4(CN(c5ccnc(C(F)(F)F)c5)C4)C3)cnc21` [Cmpd 980] gave an EC50 of less than 10 µM.
`O=C1N(c2cccc(C(F)(F)F)n2)CCC12CCN(c1cnc3cnn(CC(F)F)c3n1)C2` (stereo not drawn) [Cmpd 203] gave an EC50 of 10 to 50 µM.
Compound `CC1(C)CC2(CCN(c3cnc4cnn(CC(F)F)c4n3)CC2)C(=O)N1c1ccc(C(F)(F)F)nc1` [Cmpd 815] has an EC50 of 10 to 50 µM.
`Cc1nn(CC(F)F)c2nc(N3CCC4(CN(c5cnc(C(F)(F)F)nc5)C4)C3)cnc12` [Cmpd 429] was tested, and the EC50 was greater than 100 µM.
Work on `O=S(=O)(c1ccc(C(F)(F)F)nc1)N1CC2(CCN(c3cnc4cnn(CC(F)F)c4n3)C2)C1` [Cmpd 414] yielded an EC50 of 10 to 50 µM.
Compound `Cc1cccc(C(=O)N2CC3(CCN(c4cnc5cnn(CC(F)F)c5n4)C3)C2)c1` [Cmpd 381] has an EC50 of less than 10 µM.
In the case of `FC(F)Cn1ncc2ncc(NC3COC4(C3)CN(c3cc(C(F)(F)F)ccn3)C4)nc21` (stereo not drawn) [Cmpd 192], the EC50 is reported as less than 10 µM.
`O=C(c1ccccc1C(F)(F)F)N1CC2(CCN(c3cnc4cnn(CC(F)F)c4n3)C2)C1` [Cmpd 392] was tested, and the EC50 was less than 10 µM.
`Cc1nc(N2CCC3(C2)CN(c2cnc4c(C)nn(CC(F)F)c4n2)C3)cc(C(F)(F)F)n1` [Cmpd 578] was tested, and the EC50 was 10 to 50 µM.
`Cc1nc(N2CCC3(CC2)CN(c2cnc4cnn(C5COC5)c4n2)C3)cc(C(F)(F)F)n1` [Cmpd 584] was tested, and the EC50 was 10 to 50 µM.
`FC(F)(F)c1ccc(N2CCC3(CCN(c4cncc(-c5nncs5)n4)CC3)C2)nn1` [Cmpd 825] was tested, and the EC50 was 10 to 50 µM.
In the case of `Cc1nc(N2CC3(CCN(c4cc5c(cn4)c(C)nn5CC(F)F)CC3)CC2=O)cc(C(F)(F)F)n1` [Cmpd 614], the EC50 is reported as 10 to 50 µM.

Same assay, conditions: activation of GCase, EC50 ranges
In the case of `FC(F)Cn1ncc2ncc(N3CCC4(CCN(c5cncc(C(F)(F)F)n5)C4)CC3)nc21` [Cmpd 733], the EC50 is reported as less than 10 µM.
Compound `FC(F)Cn1ncc2ncc(N3CC4(CCN(c5ccc(C(F)(F)F)nc5)CC4)C3)nc21` [Compound 127, 2-[1-(2,2-difluoroethyl)-1H-pyrazolo[3,4-b]pyrazin-6-yl]-7-[6-(trifluoromethyl)pyridin-3-yl]-2,7-diazaspiro[3.5]nonane] has an EC50 of less than 10 µM.
Compound `CCN1C(=O)N(c2cnc3cnn(CC(F)F)c3n2)C(=O)C12CCN(c1ccc(C(F)(F)F)cn1)CC2` [Cmpd 860] has an EC50 of 10 to 50 µM.
Work on `Cc1cccc(-c2noc(C)c2C(=O)N2CCC3(CC2)CCN(c2cc(C(F)(F)F)ccn2)C3=O)c1` [Cmpd 267] yielded an EC50 of 10 to 50 µM.
With `Cc1nn(CC(F)F)c2nc(N3CCC4(CC3)CC(=O)N(c3ccnc(C(F)(F)F)n3)C4)ncc12` [Cmpd 903] the EC50 was less than 10 µM.
In the case of `O=C1CC2(CCN(c3cnc4cnn(C5COC5)c4n3)CC2)CN1c1ccnc(C(F)(F)F)c1` [Cmpd 769], the EC50 is reported as 10 to 50 µM.
Work on `O=C1CC2(CCN(c3cnc4cnn(CC(F)F)c4n3)CC2)CN1Cc1ccc(Cl)c(F)c1` [Cmpd 448] yielded an EC50 of less than 10 µM.
Work on `O=C(c1cnc(C(F)(F)F)nc1)N1CC2(CCN(c3cnc4cnn(CC(F)F)c4n3)C2)C1` [Cmpd 325] yielded an EC50 of 10 to 50 µM.
For `FC(F)Cn1ncc2ncc(N3CCC4(CN(c5cnc(C(F)(F)F)nc5)C4)C3)nc21` [Cmpd 316], the EC50 was 10 to 50 µM.
`O=C1N(c2cc(C(F)(F)F)ccn2)CCC12CCN(c1cncc(-c3nncs3)n1)CC2` [Compound 169, 8-[6-(1,3,4-thiadiazol-2-yl)pyrazin-2-yl]-2-[4-(trifluoromethyl)pyridin-2-yl]-2,8-diazaspiro[4.5]decan-1-one] showed an EC50 of less than 10 µM.
`O=C1CC2(CCN(c3ncc4cnn(CC(F)F)c4n3)CC2)CN1c1nccc(C(F)(F)F)n1` [Cmpd 290] gave an EC50 of less than 10 µM.
`FC(F)Cn1ncc2ccc(N3CCC4(CN(c5ccnc(C(F)(F)F)c5)C4)C3)nc21` [Cmpd 1073] was tested, and the EC50 was less than 10 µM.
For `O=C1N(Cc2cc(F)cc(F)c2)CCC12CCN(c1cnc3cnn(CC(F)F)c3n1)CC2` [Cmpd 358], the EC50 was less than 10 µM.
`Cc1nn(CC(F)F)c2nc(N3CCC4(CC3)CCN(c3ccc(C(F)(F)F)nc3)C4=O)cnc12` [Cmpd 260] was tested, and the EC50 was less than 10 µM.
In the case of `Cc1nc(N2CC3(CCN(c4cnc5cnn(C6COC6)c5n4)CC3)C2)cc(C(F)(F)F)n1` [Cmpd 563], the EC50 is reported as greater than 100 µM.
Compound `FC(F)Cn1ncc2ncc(N3CCC4(CCN(c5cnc(C(F)(F)F)nc5)C4)C3)nc21` (stereo not drawn) [Cmpd 481] has an EC50 of 10 to 50 µM.
`CCn1c(=O)n(CC(F)F)c2nc(N3CCC4(C3)CN(c3cnc(C)nc3C(F)(F)F)C4)ncc21` [Cmpd 1083] was tested, and the EC50 was 10 to 50 µM.
In the case of `Cc1nn(CC(F)F)c2nc(N3CCC4(CC3)CC(=O)N(c3nccc(C(F)(F)F)n3)C4)cnc12` [Cmpd 282], the EC50 is reported as less than 10 µM.
For `O=C1CC2(CCN(c3ccc(C(F)(F)F)cn3)C2)CN1c1cnc2cnn(CC(F)F)c2n1` (stereo not drawn) [Cmpd 508], the EC50 was 10 to 50 µM.
With `CCOc1nn(C2COC2)c2nc(N3CCC4(CN(c5ccnc(C(F)(F)F)c5)C4)C3)ncc12` [Cmpd 946] the EC50 was 10 to 50 µM.
Work on `O=C1CC2(CCN(c3cnc4cnn(CC(F)F)c4n3)CC2)CN1Cc1ccnc(C(F)(F)F)c1` [Cmpd 362] yielded an EC50 of less than 10 µM.
With `Cc1nc(N2CCC3(CCN(c4cncc(-c5nncs5)n4)C3)C2)cc(C(F)(F)F)n1` (stereo not drawn) [Cmpd 539] the EC50 was 10 to 50 µM.
`FC(F)(F)c1ccc(N2CC3(CCN(c4cnc5cnn(C6COC6)c5n4)C3)C2)cn1` [Cmpd 660] gave an EC50 of 10 to 50 µM.
Work on `Cc1ncc(CN2CC3(CCN(c4cnc5cnn(CC(F)F)c5n4)CC3)CC2=O)o1` [Cmpd 974] yielded an EC50 of 50 to 100 µM.
In the case of `COCCN1C(=O)N(c2cc(C(F)(F)F)ccn2)C(=O)C12CCN(c1cnc3cnn(CC(F)F)c3n1)CC2` [Cmpd 713], the EC50 is reported as less than 10 µM.
Work on `CCOc1nn(CC(F)F)c2nc(N3CCC4(CC3)CC(=O)N(c3ccc(C(F)(F)F)nc3)C4)cnc12` [Cmpd 947] yielded an EC50 of less than 10 µM.
`COCCOc1cccc(N2CCC3(CCN(c4cnc5cnn(CC(F)F)c5n4)CC3)C2=O)n1` [Cmpd 672] was tested, and the EC50 was 10 to 50 µM.
For `FC(F)Cn1ncc2ncc(N3CC4(CCN(c5ccc(C(F)(F)F)cn5)CC4)C3)nc21` [Compound 124, 2-[1-(2,2-difluoroethyl)-1H-pyrazolo[3,4-b]pyrazin-6-yl]-7-[5-(trifluoromethyl)pyridin-2-yl]-2,7-diazaspiro[3.5]nonane], the EC50 was less than 10 µM.
With `FC(F)(F)c1ncc(N2CC3(CCN(c4ncc5cnn(C6COC6)c5n4)C3)C2)cn1` [Cmpd 434] the EC50 was 10 to 50 µM.
`O=C1CCC2(CCN(c3cnc4cnn(CC(F)F)c4n3)CC2)CN1c1ccc(C(F)(F)F)cn1` [Cmpd 294] gave an EC50 of 10 to 50 µM.
Compound `FC(F)Cn1ncc2ncc(N3CCCC4(CC(Oc5cccc(C(F)(F)F)n5)C4)C3)nc21` (stereo not drawn) [Compound 27, 6-[1-(2,2-difluoroethyl)-1H-pyrazolo[3,4-b]pyrazin-6-yl]-2-{[6-(trifluoromethyl)pyridin-2-yl]oxy}-6-azaspiro[3.5]nonane] has an EC50 of 10 to 50 µM.
Compound `COc1nn(CC(F)F)c2nc(N3CCC4(CN(c5cc(C(F)(F)F)nc(C)n5)C4)C3)cnc12` [Cmpd 1095] has an EC50 of 10 to 50 µM.
For `O=C1CC2(CCN(c3cnc4cnn(CC(F)F)c4n3)CC2)CN1c1cnccc1C(F)(F)F` [Cmpd 682], the EC50 was 10 to 50 µM.
With `CC(C)(C)Cn1ncc2ncc(N3CCC4(CN(c5ccnc(C(F)(F)F)c5)C4)C3)nc21` [Cmpd 1125] the EC50 was 10 to 50 µM.
`COc1nc2cnn(CC(F)F)c2nc1N1CCC2(CC1)CC(=O)N(c1ccc(C(F)(F)F)nc1)C2` [Cmpd 836] was tested, and the EC50 was less than 10 µM.
`Cc1c(N2CC3(CCN(c4cnc5cnn(C6COC6)c5n4)C3)C2)ccnc1C(F)(F)F` [Cmpd 1041] showed an EC50 greater than 100 µM.
Compound `Cn1c(=O)n(C2COC2)c2nc(N3CCC4(CN(c5ccnc(C(F)(F)F)c5)C4)C3)ncc21` [Cmpd 1141] has an EC50 of less than 10 µM.
For `FC(F)(F)c1cncc(N2CCC3(CCN(c4cnc5cnn(C6COC6)c5n4)CC3)C2)n1` [Cmpd 768], the EC50 was less than 10 µM.
`Cc1nc(N2CC3(CCN(c4ncc5c(C)nn(C6COC6)c5n4)CC3)C2)cc(C(F)(F)F)n1` [Cmpd 570] was tested, and the EC50 was 10 to 50 µM.
`O=C1N(c2cnc(C(F)(F)F)nc2)CCC12CCN(c1cnc3cnn(CC(F)F)c3n1)CC2` [Cmpd 306] showed an EC50 of 10 to 50 µM.
Compound `FC(F)(F)Cn1ncc2cnc(N3CCC4(CCN(c5ccnc(C(F)(F)F)c5)C4)C3)nc21` (stereo not drawn) [Cmpd 489] has an EC50 of 10 to 50 µM.
`Fc1cc(N2CCC3(CCN(c4cnc5cnn(CC(F)F)c5n4)CC3)C2)cnc1C(F)(F)F` [Cmpd 742] was tested, and the EC50 was less than 10 µM.
Compound `Cc1nc(N2CCC3(CCN(c4ncc5c(C)nn(C6COC6)c5n4)CC3)C2)cc(C(F)(F)F)n1` [Cmpd 550] has an EC50 greater than 100 µM.
